In ChEMBL document CHEMBL3885861, “Open TG-GATES”:

Species on record: Rattus norvegicus
Experiment: Open TG-GATES - Regimen: Daily Repeat
Format: toxicity, organism-based, Sprague-Dawley
Design: regimen Daily Repeat, gender Male, age 6 weeks
Details: in vivo, po, 300 mg/kg, route gavage, dose level High; for APTT / Bas / Eos / Fbg / Hb / Ht / Lym / MCH / MCHC / MCV / Mono / Neu / PT / Plat / RBC / Ret / WBC: tissue Blood; for KIDNEY_L / KIDNEY_R / KIDNEY_TOTAL: tissue Kidney; for LIVER: tissue Liver; for A/G / ALP / ALT / AST / BUN / CRE / Ca / Cl / DBIL / GLC / IP / K / LDH / Na / PL / RALB / TBIL / TC / TG / TP / gamma-GTP: tissue Plasma

SMILES: ClC(Cl)(Cl)Cl [CARBON TETRACHLORIDE]
- TERMINAL_BW (72 h, time 3 day): 213 g
- APTT (72 h, time 3 day): 21.4 s
- Bas (72 h, time 3 day): 0%
- Eos (72 h, time 3 day): 1%
- Fbg (72 h, time 3 day): 217 mg/dL
- Hb (72 h, time 3 day): 14.1 g/dL
- Ht (72 h, time 3 day): 41.3%
- Lym (72 h, time 3 day): 73%
- MCH (72 h, time 3 day): 21.6 pg
- MCHC (72 h, time 3 day): 34.1%
- MCV (72 h, time 3 day): 63.2 fL
- Mono (72 h, time 3 day): 4%
- Neu (72 h, time 3 day): 20.4%
- PT (72 h, time 3 day): 13.5 s
- Plat (72 h, time 3 day): 114.2 x10_4/uL
- RBC (72 h, time 3 day): 655 x10_4/ul
- Ret (72 h, time 3 day): 5.5%
- WBC (72 h, time 3 day): 96.3 x10_2/uL
- KIDNEY_L (72 h, time 3 day): 1 g
- KIDNEY_R (72 h, time 3 day): 1 g
- KIDNEY_TOTAL (72 h, time 3 day): 1.9 g
- LIVER (72 h, time 3 day): 11.1 g
- A/G (72 h, time 3 day): 1.5
- ALP (72 h, time 3 day): 1664.6 IU/L
- ALT (72 h, time 3 day): 124.8 IU/L
- AST (72 h, time 3 day): 283.8 IU/L
- BUN (72 h, time 3 day): 14.6 mg/dL
- CRE (72 h, time 3 day): 0.4 mg/dL
- Ca (72 h, time 3 day): 10.7 mg/dL
- Cl (72 h, time 3 day): 103.8 meq/L
- DBIL (72 h, time 3 day): 0.068 mg/dL
- GLC (72 h, time 3 day): 178.4 mg/dL
- IP (72 h, time 3 day): 7.3 mg/dL
- K (72 h, time 3 day): 3.8 meq/L
- LDH (72 h, time 3 day): 355.2 IU/L
- Na (72 h, time 3 day): 140.4 meq/L
- PL (72 h, time 3 day): 116.4 mg/dL
- RALB (72 h, time 3 day): 3.1 g/dL
- TBIL (72 h, time 3 day): 0.1 mg/dL
- TC (72 h, time 3 day): 49.8 mg/dL
- TG (72 h, time 3 day): 28.6 mg/dL
- TP (72 h, time 3 day): 5.3 g/dL
- gamma-GTP (72 h, time 3 day): 1.2 IU/L
- TERMINAL_BW ([…], time 7 day): 248.2 g
- TERMINAL_BW ([…], time 14 day): 287.9 g
- TERMINAL_BW ([…], time 28 day): 367.6 g
- APTT ([…], time 7 day): 20.7 s
- Bas ([…], time 7 day): 0%
- Eos ([…], time 7 day): 1%
- Fbg ([…], time 7 day): 230.4 mg/dL
- Hb ([…], time 7 day): 13.5 g/dL
- Ht ([…], time 7 day): 39.2%
- Lym ([…], time 7 day): 78.8%
- MCH ([…], time 7 day): 21.4 pg
- MCHC ([…], time 7 day): 34.4%
- MCV ([…], time 7 day): 62.3 fL
- Mono ([…], time 7 day): 3.6%
- Neu ([…], time 7 day): 16.2%
- PT ([…], time 7 day): 12.4 s
- Plat ([…], time 7 day): 106.7 x10_4/uL
- RBC ([…], time 7 day): 629.6 x10_4/ul
- Ret ([…], time 7 day): 6%
- WBC ([…], time 7 day): 130.8 x10_2/uL
- APTT ([…], time 14 day): 23 s
- Bas ([…], time 14 day): 0%
- Eos ([…], time 14 day): 1%
- Fbg ([…], time 14 day): 211.6 mg/dL
- Hb ([…], time 14 day): 14.2 g/dL
- Ht ([…], time 14 day): 42.3%
- Lym ([…], time 14 day): 81.4%
- MCH ([…], time 14 day): 19.1 pg
- MCHC ([…], time 14 day): 33.7%
- MCV ([…], time 14 day): 56.9 fL
- Mono ([…], time 14 day): 3%
- Neu ([…], time 14 day): 14.2%
- PT ([…], time 14 day): 12.6 s
- Plat ([…], time 14 day): 101.2 x10_4/uL
- RBC ([…], time 14 day): 744.4 x10_4/ul
- Ret ([…], time 14 day): 3.5%
- WBC ([…], time 14 day): 113.3 x10_2/uL
- APTT ([…], time 28 day): 25.3 s
- Bas ([…], time 28 day): 0%
- Eos ([…], time 28 day): 1%
- Fbg ([…], time 28 day): 198.8 mg/dL
- Hb ([…], time 28 day): 14.5 g/dL
- Ht ([…], time 28 day): 43.1%
- Lym ([…], time 28 day): 82.4%
- MCH ([…], time 28 day): 17.9 pg
- MCHC ([…], time 28 day): 33.6%
- MCV ([…], time 28 day): 53.1 fL
- Mono ([…], time 28 day): 3.4%
- Neu ([…], time 28 day): 13.2%
- PT ([…], time 28 day): 13.7 s
- Plat ([…], time 28 day): 99.7 x10_4/uL
- RBC ([…], time 28 day): 811.4 x10_4/ul
- Ret ([…], time 28 day): 2.3%
- WBC ([…], time 28 day): 151.6 x10_2/uL
- KIDNEY_L ([…], time 7 day): 1.1 g
- KIDNEY_R ([…], time 7 day): 1.1 g
- KIDNEY_TOTAL ([…], time 7 day): 2.2 g
- KIDNEY_L ([…], time 14 day): 1.1 g
- KIDNEY_R ([…], time 14 day): 1.1 g
- KIDNEY_TOTAL ([…], time 14 day): 2.2 g
- KIDNEY_L ([…], time 28 day): 1.2 g
- KIDNEY_R ([…], time 28 day): 1.2 g
- KIDNEY_TOTAL ([…], time 28 day): 2.5 g
- LIVER ([…], time 7 day): 13.7 g
- LIVER ([…], time 14 day): 15.9 g
- LIVER ([…], time 28 day): 20.8 g
- A/G ([…], time 7 day): 1.6
- ALP ([…], time 7 day): 1583 IU/L
- ALT ([…], time 7 day): 72.2 IU/L
- AST ([…], time 7 day): 139.2 IU/L
- BUN ([…], time 7 day): 16 mg/dL
- CRE ([…], time 7 day): 0.4 mg/dL
- Ca ([…], time 7 day): 10.6 mg/dL
- Cl ([…], time 7 day): 104.4 meq/L
- DBIL ([…], time 7 day): 0.074 mg/dL
- GLC ([…], time 7 day): 186.2 mg/dL
- IP ([…], time 7 day): 8.5 mg/dL
- K ([…], time 7 day): 4.1 meq/L
- LDH ([…], time 7 day): 305.4 IU/L
- Na ([…], time 7 day): 140.6 meq/L
- PL ([…], time 7 day): 129.2 mg/dL
- RALB ([…], time 7 day): 3.3 g/dL
- TBIL ([…], time 7 day): 0.1 mg/dL
- TC ([…], time 7 day): 56 mg/dL
- TG ([…], time 7 day): 44.4 mg/dL
- TP ([…], time 7 day): 5.4 g/dL
- gamma-GTP ([…], time 7 day): 1.4 IU/L
- A/G ([…], time 14 day): 1.6
- ALP ([…], time 14 day): 1597.4 IU/L
- ALT ([…], time 14 day): 149.4 IU/L
- AST ([…], time 14 day): 238.6 IU/L
- BUN ([…], time 14 day): 16.4 mg/dL
- CRE ([…], time 14 day): 0.5 mg/dL
- Ca ([…], time 14 day): 10.4 mg/dL
- Cl ([…], time 14 day): 103.8 meq/L
- DBIL ([…], time 14 day): 0.064 mg/dL
- GLC ([…], time 14 day): 187.6 mg/dL
- IP ([…], time 14 day): 7.5 mg/dL
- K ([…], time 14 day): 3.9 meq/L
- LDH ([…], time 14 day): 389.6 IU/L
- Na ([…], time 14 day): 140.8 meq/L
- PL ([…], time 14 day): 113 mg/dL
- RALB ([…], time 14 day): 3.4 g/dL
- TBIL ([…], time 14 day): 0.1 mg/dL
- TC ([…], time 14 day): 51.6 mg/dL
- TG ([…], time 14 day): 21 mg/dL
- TP ([…], time 14 day): 5.7 g/dL
- gamma-GTP ([…], time 14 day): 1.4 IU/L
- A/G ([…], time 28 day): 1.3
- ALP ([…], time 28 day): 1255 IU/L
- ALT ([…], time 28 day): 300.8 IU/L
- AST ([…], time 28 day): 396.2 IU/L
- BUN ([…], time 28 day): 17.8 mg/dL
- CRE ([…], time 28 day): 0.5 mg/dL
- Ca ([…], time 28 day): 10.6 mg/dL
- Cl ([…], time 28 day): 103.4 meq/L
- DBIL ([…], time 28 day): 0.092 mg/dL
- GLC ([…], time 28 day): 174.2 mg/dL
- IP ([…], time 28 day): 6.4 mg/dL
- K ([…], time 28 day): 3.9 meq/L
- LDH ([…], time 28 day): 534.6 IU/L
- Na ([…], time 28 day): 141.6 meq/L
- PL ([…], time 28 day): 103.6 mg/dL
- RALB ([…], time 28 day): 3.4 g/dL
- TBIL ([…], time 28 day): 0.2 mg/dL
- TC ([…], time 28 day): 39.4 mg/dL
- TG ([…], time 28 day): 20.8 mg/dL
- TP ([…], time 28 day): 5.9 g/dL
- gamma-GTP ([…], time 28 day): 1.2 IU/L
